# Measurements reported in patent US9187472B2 (AbbVie Inc., priority 2012, dated 2015).
# Experiments:
# [1] = target: NAMPT (human, recombinant, C-terminally His-tagged) (Homo sapiens, UniProt P43490); experiment: Time-Resolved Fluorescence Resonance Energy Transfer (TR-FRET) Binding Assay of NAMPT; conditions: without substrates; 6.8 nM NAMPT, 200 nM probe, 3 hours equilibration
# How it was run: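 A TR-FRET probe-displacement assay used 6.8 nM His-tagged recombinant human NAMPT, 200 nM Oregon Green 488-labelled nicotinamide-competitive probe and 1 nM Tb-anti-His antibody. Buffer was HEPES pH 7.5 with NaCl, MgCl2, DTT and glycerol, plus 2% DMSO, equilibrated 3 h at room temperature. Em520/Em495 ratios, normalized to controls, gave IC50 by four-parameter logistic fit.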
# NAMPT = NAMPT (Homo sapiens, UniProt P43490); experiment: TR-FRET Binding Assay of NAMPT with PRPP; conditions: with 200 μM PRPP and 2.5 mM ATP; 2 nM NAMPT, 2 nM probe, 16 hours equilibration
# How it was run: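 Human NAMPT (2 nM) with 2 nM probe and 1 nM Tb-anti-His antibody, plus 200 μM PRPP and 2.5 mM ATP, 2% DMSO. TR-FRET read after 16 h equilibration, permitting possible enzymatic modification of test compounds; data processing as for the substrate-free format.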
# PC3 cells = experiment: NAMPT Cell Proliferation Assay; type: cell-based; conditions: Homo sapiens, PC-3, 120 h, 5 days incubation, cell viability by Cell Titer Glo
# How it was run: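 Seed PC3 at 500 cells/well (RPMI, 10% HI-FBS), attach overnight; add compound, 10-fold series 10 μM → 1×10^−5 μM; incubate 5 d, 37° C/5% CO2; luminescent viability readout; fit % inhibition sigmoidally for IC50.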
# Chain of NAMPT (human, recombinant, C-terminally His-tagged) (P43490 whole entry): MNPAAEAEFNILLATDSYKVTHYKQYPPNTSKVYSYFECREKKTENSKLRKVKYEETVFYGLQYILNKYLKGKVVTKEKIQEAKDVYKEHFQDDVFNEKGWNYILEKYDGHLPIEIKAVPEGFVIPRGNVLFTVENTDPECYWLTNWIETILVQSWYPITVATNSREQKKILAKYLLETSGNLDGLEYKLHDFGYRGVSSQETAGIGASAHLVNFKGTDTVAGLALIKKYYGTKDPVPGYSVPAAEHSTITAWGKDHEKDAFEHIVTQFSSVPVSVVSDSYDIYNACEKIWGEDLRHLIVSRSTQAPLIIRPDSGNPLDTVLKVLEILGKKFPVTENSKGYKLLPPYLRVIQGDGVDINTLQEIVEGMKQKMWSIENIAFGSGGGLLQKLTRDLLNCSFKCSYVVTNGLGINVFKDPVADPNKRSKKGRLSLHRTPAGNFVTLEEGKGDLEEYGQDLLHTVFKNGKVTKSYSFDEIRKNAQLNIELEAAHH
# Chain of NAMPT (P43490 whole entry): as above
Compound,IC50 [1] [nM],IC50 (NAMPT) [nM],IC50 (PC3 cells) [nM]
"CC(C)(C#N)Cn1cc(-c2ccc(C(=O)NCc3ccn4ccnc4c3)s2)cn1 [Example 577, 5-[1-(2-cyano-2-methylpropyl)-1H-pyrazol-4-yl]-N-(imidazo[1,2-a]pyridin-7-ylmethyl)thiophene-2-carboxamide]",18.9,0.361,2.15
"CC(C)Cn1cc(-c2sc(C(=O)NCc3ccn4ccnc4c3)cc2Cl)cn1 [Example 578, 4-chloro-N-(imidazo[1,2-a]pyridin-7-ylmethyl)-5-[1-(2-methylpropyl)-1H-pyrazol-4-yl]thiophene-2-carboxamide]",682,0.775,4600
"O=C(NCc1ccn2ccnc2c1)c1cc(Cl)c(-c2cnn(C[C@H]3CCOC3)c2)s1 [Example 579, 4-chloro-N-(imidazo[1,2-a]pyridin-7-ylmethyl)-5-{1-[(3R)-tetrahydrofuran-3-ylmethyl]-1H-pyrazol-4-yl}thiophene-2-carboxamide]",488,0.634,758
"CC1CC1C(=O)N1CCC(c2ccc(C(=O)NCc3ccn4ccnc4c3)cc2)C1 (stereo not drawn) [Example 580, N-(imidazo[1,2-a]pyridin-7-ylmethyl)-4-{1-[(2-methylcyclopropyl)carbonyl]pyrrolidin-3-yl}benzamide]",1470,0.798,212
"O=C(NCc1ccn2ccnc2c1)c1ccc(C2CCN(C(=O)CC3CCCC3)C2)cc1 (stereo not drawn) [Example 581, 4-[1-(cyclopentylacetyl)pyrrolidin-3-yl]-N-(imidazo[1,2-a]pyridin-7-ylmethyl)benzamide]",945,1.09,81.2
"CCC(C)CC(=O)N1CCC(c2ccc(C(=O)NCc3ccn4ccnc4c3)cc2)C1 (stereo not drawn) [Example 582, N-(imidazo[1,2-a]pyridin-7-ylmethyl)-4-[1-(3-methylpentanoyl)pyrrolidin-3-yl]benzamide]",711,0.911,33.2
"O=C(NCc1ccn2ccnc2c1)c1ccc(C2CCN(C(=O)C3CCCC3)C2)cc1 (stereo not drawn) [Example 583, 4-[1-(cyclopentylcarbonyl)pyrrolidin-3-yl]-N-(imidazo[1,2-a]pyridin-7-ylmethyl)benzamide]",1120,0.799,189
"CC1(C(=O)N2CCC(c3ccc(C(=O)NCc4ccn5ccnc5c4)cc3)C2)CC1 (stereo not drawn) [Example 584, N-(imidazo[1,2-a]pyridin-7-ylmethyl)-4-{1-[(1-methylcyclopropyl)carbonyl]pyrrolidin-3-yl}benzamide]",811,0.756,58.7
"CC(C)(C)C(=O)N1CCC(c2ccc(C(=O)NCc3ccn4ccnc4c3)cc2)C1 (stereo not drawn) [Example 585, 4-[1-(2,2-dimethylpropanoyl)pyrrolidin-3-yl]-N-(imidazo[1,2-a]pyridin-7-ylmethyl)benzamide]",641,0.648,34.6
"O=C(NCc1ccn2ccnc2c1)c1ccc(C2CCN(C(=O)c3cncs3)C2)cc1 (stereo not drawn) [Example 586, N-(imidazo[1,2-a]pyridin-7-ylmethyl)-4-[1-(1,3-thiazol-5-ylcarbonyl)pyrrolidin-3-yl]benzamide]",842,1.09,301
"COc1ccccc1C(=O)N1CCC(c2ccc(C(=O)NCc3ccn4ccnc4c3)cc2)C1 (stereo not drawn) [Example 587, N-(imidazo[1,2-a]pyridin-7-ylmethyl)-4-[1-(2-methoxybenzoyl)pyrrolidin-3-yl]benzamide]",236,0.917,7.54
"O=C(NCc1ccn2ccnc2c1)c1ccc(C2CCN(C(=O)c3cscn3)C2)cc1 (stereo not drawn) [Example 588, N-(imidazo[1,2-a]pyridin-7-ylmethyl)-4-[1-(1,3-thiazol-4-ylcarbonyl)pyrrolidin-3-yl]benzamide]",684,0.623,181
"O=C(NCc1ccn2ccnc2c1)c1ccc(C2CCN(C(=O)c3ccccc3F)C2)cc1 (stereo not drawn) [Example 589, 4-[1-(2-fluorobenzoyl)pyrrolidin-3-yl]-N-(imidazo[1,2-a]pyridin-7-ylmethyl)benzamide]",16.1,0.887,1.31
"O=C(NCc1ccn2ccnc2c1)c1ccc(C2CCN(C(=O)c3ccco3)C2)cc1 (stereo not drawn) [Example 590, 4-[1-(furan-2-ylcarbonyl)pyrrolidin-3-yl]-N-(imidazo[1,2-a]pyridin-7-ylmethyl)benzamide]",666,0.734,189
"O=C(NCc1ccn2ccnc2c1)c1ccc(C2CCN(C(=O)c3cccc(F)c3)C2)cc1 (stereo not drawn) [Example 591, 4-[1-(3-fluorobenzoyl)pyrrolidin-3-yl]-N-(imidazo[1,2-a]pyridin-7-ylmethyl)benzamide]",138,0.761,19.3
"O=C(NCc1ccn2ccnc2c1)c1ccc(C2CCN(C(=O)c3ccc(F)cc3F)C2)cc1 (stereo not drawn) [Example 592, 4-[1-(2,4-difluorobenzoyl)pyrrolidin-3-yl]-N-(imidazo[1,2-a]pyridin-7-ylmethyl)benzamide]",38.8,0.603,3.75
"Cn1ccc(C(=O)N2CCC(c3ccc(C(=O)NCc4ccn5ccnc5c4)cc3)C2)n1 (stereo not drawn) [Example 593, N-(imidazo[1,2-a]pyridin-7-ylmethyl)-4-{1-[(1-methyl-1H-pyrazol-3-yl)carbonyl]pyrrolidin-3-yl}benzamide]",767,0.544,677
"O=C(NCc1ccn2ccnc2c1)c1ccc(C2CCN(C(=O)c3ccccc3Cl)C2)cc1 (stereo not drawn) [Example 594, 4-[1-(2-chlorobenzoyl)pyrrolidin-3-yl]-N-(imidazo[1,2-a]pyridin-7-ylmethyl)benzamide]",22.7,0.682,1.11
"Cc1ccccc1C(=O)N1CCC(c2ccc(C(=O)NCc3ccn4ccnc4c3)cc2)C1 (stereo not drawn) [Example 595, N-(imidazo[1,2-a]pyridin-7-ylmethyl)-4-[1-(2-methylbenzoyl)pyrrolidin-3-yl]benzamide]",133,0.746,6.93
"O=C(NCc1ccn2ccnc2c1)c1ccc(C2CCN(C(=O)c3ccc(Cl)cc3)C2)cc1 (stereo not drawn) [Example 596, 4-[1-(4-chlorobenzoyl)pyrrolidin-3-yl]-N-(imidazo[1,2-a]pyridin-7-ylmethyl)benzamide]",691,0.909,257
"O=C(NCc1ccn2ccnc2c1)c1ccc(C2CCN(C(=O)c3cccc(Cl)c3)C2)cc1 (stereo not drawn) [Example 597, 4-[1-(3-chlorobenzoyl)pyrrolidin-3-yl]-N-(imidazo[1,2-a]pyridin-7-ylmethyl)benzamide]",232,0.862,33.5
"CCC(C)(C)C(=O)N1CCC(c2ccc(C(=O)NCc3ccn4ccnc4c3)cc2)C1 (stereo not drawn) [Example 598, 4-[1-(2,2-dimethylbutanoyl)pyrrolidin-3-yl]-N-(imidazo[1,2-a]pyridin-7-ylmethyl)benzamide]",457,0.804,16.6
"O=C(NCc1ccn2ccnc2c1)c1ccc(C2CCN(C(=O)c3cc(F)cc(F)c3)C2)cc1 (stereo not drawn) [Example 599, 4-[1-(3,5-difluorobenzoyl)pyrrolidin-3-yl]-N-(imidazo[1,2-a]pyridin-7-ylmethyl)benzamide]",527,0.786,52.3
"Cc1ccc(C(=O)N2CCC(c3ccc(C(=O)NCc4ccn5ccnc5c4)cc3)C2)cc1 (stereo not drawn) [Example 600, N-(imidazo[1,2-a]pyridin-7-ylmethyl)-4-[1-(4-methylbenzoyl)pyrrolidin-3-yl]benzamide]",510,0.169,110
"CC(C)CC(=O)N1CCC(c2ccc(C(=O)NCc3ccn4ccnc4c3)cc2)C1 (stereo not drawn) [Example 601, N-(imidazo[1,2-a]pyridin-7-ylmethyl)-4-[1-(3-methylbutanoyl)pyrrolidin-3-yl]benzamide]",712,0.682,56.7
"CC(C)(C)CC(=O)N1CCC(c2ccc(C(=O)NCc3ccn4ccnc4c3)cc2)C1 (stereo not drawn) [Example 602, 4-[1-(3,3-dimethylbutanoyl)pyrrolidin-3-yl]-N-(imidazo[1,2-a]pyridin-7-ylmethyl)benzamide]",786,0.887,48.6
"N#Cc1cccc(C(=O)N2CCC(c3ccc(C(=O)NCc4ccn5ccnc5c4)cc3)C2)c1 (stereo not drawn) [Example 603, 4-[1-(3-cyanobenzoyl)pyrrolidin-3-yl]-N-(imidazo[1,2-a]pyridin-7-ylmethyl)benzamide]",1030,1.01,695
"COc1cccc(C(=O)N2CCC(c3ccc(C(=O)NCc4ccn5ccnc5c4)cc3)C2)c1 (stereo not drawn) [Example 604, N-(imidazo[1,2-a]pyridin-7-ylmethyl)-4-[1-(3-methoxybenzoyl)pyrrolidin-3-yl]benzamide]",151,0.843,10.1
"COc1ccc(C(=O)N2CCC(c3ccc(C(=O)NCc4ccn5ccnc5c4)cc3)C2)cc1 (stereo not drawn) [Example 605, N-(imidazo[1,2-a]pyridin-7-ylmethyl)-4-[1-(4-methoxybenzoyl)pyrrolidin-3-yl]benzamide]",559,0.886,66.1
